Where no end group is shown, it is not given here.
Test system: GH4C1 cells
Experiment: Rat pituitary assay for somatostatin receptor antagonists (cAMP content of GH4C1 cells)
Assay type: cell-based
From the text: This assay is designed to quantitate the activity of antagonists of somatostatin that interact directly at the somatostatin receptor. The assay facilitates discovery of agents which increase growth hormone secretion by modulating the inhibitory effects of somatostatin. As aforementioned, somatostatin (also abbreviated SRIF) inhibits GH secretion in the anterior pituitary by binding to a high affinity membrane-bound (and G-protein coupled) receptor which is coupled negatively to adenyl cyclase, thereby reducing intracellular levels of cAMP that would otherwise facilitate, for example, secretion/release of GH from cytoplasmic granules. […] The screen is designed to quantitate the ability of test agents to reverse SRIF's inhibition of the elevated intracellular cAMP levels produced by VIP. […]
In particular, cyclic AMP (cAMP) content of the pituitary cell line GH4C1 was used to differentiate somatostatin agonists from antagonists. […] This afforded a convenient way to conduct a homogenous immunoradiometric assay of cAMP content in cells lysed in situ, following incubation of the cells with test compound. cAMP content in the GH4C1 cells was determined according to the manufacturer's instructions, by comparison with standards at concentrations from 10 to 1,000 nM cAMP. […]

| Compound | effect on VIP-elevated cAMP content of the GH4C1 cells (10 nM somatostatin 14 in the presence of 100 nM VIP) | effect on cAMP content of the GH4C1 cells (100 nM VIP) |
| --- | --- | --- |
| C[C@H](N)C(=O)NCC(=O)N[C@H]1CSSC[C@@H](C(=O)O)NC(=O)[C@H](CO)NC(=O)[C@H]([C@@H](C)O)NC(=O)[C@H](Cc2ccccc2)NC(=O)[C@H]([C@@H](C)O)NC(=O)[C@H](CCCCN)NC(=O)[C@H](Cc2c[nH]c3ccccc23)NC(=O)[C@H](Cc2ccccc2)NC(=O)[C@H](Cc2ccccc2)NC(=O)[C@H](CC(N)=O)NC(=O)[C@H](CCCCN)NC1=O [somatostatin, somatostatin 14] | partial inhibition |  |
| vasoactive intestinal peptide (HSDAVFTDNYTRLRKQMAVKKYLNSILN; ends and bridges not checked; UniProt P01282 125-152, looked up) [VIP] |  | increased cAMP content |

Reference: patent publication US6696418B1, “Somatostatin antagonists and agonists that act at the SST subtype 2 receptor” (Pfizer Inc., priority 1999, dated 2004)
